Source: patent US7144731B2, “SCF antibody compositions and methods of using the same” (Amgen Inc., priority 1989, dated 2006)

Legend:
[1] = tested on: UT-7 cells; assay: UT-7 ^3H-thymidine uptake assay; type: cell-based, human
Experimental: UT-7 cells are a human megakaryocyte, huGM-CSF responsive cell line obtained from John Adamson, New York Blood Center, New York, N.Y. UT-7 cells were cultured in Iscove's Modified Dulbecco's Medium, 10% FBS, 1× glutamine, 5 \g/ml huGM-CSF. Cells are passaged twice a week at 1×10^5 cells/ml.
Cells were washed twice in phosphate buffered saline (PBS) and resuspended in RPMI medium with 4% FBS and glutamine penicillin streptomycin (GPS) (Irvine Scientific Cat No. 9316 used at 1% volume per volume) at 4×10^4 cells/ml before use. Human SCF along with specific samples were added to 4000 cells/well in 96 well plates and were cultured for 72 hrs. 0.5 uCi/well of ^3H-Thymidine was then added to each plate, plates were harvested and counted 4 hours later.

[2] = biological target: T1, SCF receptor (OCIM1 plasma membrane) (Homo sapiens, UniProt P10721); assay: SCF radioreceptor assay; type: binding
T1 construct: endogenous in cells; host or cells: OCIM1 human erythroleukemic cells, plasma membrane preparation
Experimental: OCIM1 cells, [Papayannopoulou et al., Blood 72:1029–1038 (1988)] are a human erythroleukemic cell line expressing many human SCF receptors per cell. These cells are grown in Iscove's Modified Dulbecco's Medium, 10% FBS, and 1× glutamine and passaged 3 times a week to 1×10^5 cells/ml.
Preparation of the OCIM1 plasma membrane is as follows with all steps performed on ice.
First, 40 T175 flasks of cells were grown-up in OCIM1 culture medium, for a total of 1.9×10^9 […]. The conditioned medium and 1 mM Phenyl Methyl Sulfonyl Fluoride (PMSF) protease inhibitor, was spun down in 8×250 ml tubes at 1000 rpm for 10 minutes at 4° C. Cells were washed with PBS and repelleted in 4×50 ml centrifuge tubes at 1000 rpm for 10 minutes at 4° C. Cells were resuspended in 20 ml ice cold PBS with glucose sodium pyruvate (Gibco Cat #310-4287). The 20 ml cell solution was put into a pre-pressurized, pre-chilled (4° C.) “cell bomb” designed to lyse the cells. Cells were pressurized at 400–650 PSI for 10 minutes to establish equilibrium. When the pressure is released cell lysis occurs.
At this point the cells were checked for the percentage of cell lysis. 90% lysis was common. The cell suspension was resuspended in 80 mls sucrose buffer (0.25M sucrose, 10 mM Tris, 1 mM EDTA in double distilled (dd) H2O, filtered through a 0.45 u filter, pH 7.0) and divided between two 40 ml screwcap tubes. Tubes were spun at 5900 RPM for 10 minutes in a Beckman J2-21 centrifuge, JA-20 rotor at 4° C. The supernatants were saved and spun one more time as above to further remove any unwanted material. Supernatants were saved and distributed equally into 2 nalgene 40 ml centrifuge tubes. These supernatants were centrifuged at 16,000 RPM 4° C. for 30 min. in J2-21 centrifuge, JA-20 rotor. These supernatants were discarded being careful to save pellets. Each pellet was resuspended in sucrose buffer so there were 20 mls per tube in 4×36 ml plastic ultracentrifuge tubes. Using a 20 ml syringe and a large trochar, the solution was carefully underlayered in each tube with ice cold 36% sucrose solution (36.1 g sucrose/100 mls ddH2O), bringing the level of the liquid to within 2 mm of the top of the tube. Without disturbing the interface, each tube was carefully placed into each of […] titanium ultracentrifuge tubes. Tubes were centrifuged at 27,000 RPM, 4° C. for 75 minutes in an ultracentrifuge. These tubes were carefully removed from the rotor and from titanium buckets, placed in a rack with the 36% sucrose interface visible. The membraneous material at the interface was collected with a pasteur pipet and transfered into 2 clean nalgene 40 ml centrifuge tubes. Volume was brought up to 40 mls with ice cold sucrose buffer. Tubes were balanced and centrifuged as before at 5900 RPM in J2-21 centrifuge. […]

[3] = tested on: 5-FU treated mouse bone marrow cells; assay: HPP-CFC assay; type: cell-based; conditions: COS-1 supernatants, concentrations tested
From the text: There are a variety of biological activities which can be attributed to the natural mammalian rat SCF as well as the recombinant rat SCF protein. One such activity is its effect on early hematopoietic cells. This activity can be measured in a High Proliferative Potential Colony Forming Cell (HPP-CFC) assay [Zsebo, et al., supra (1988)]. To investigate the effects of factors on early hematopoietic cells, the HPP-CFC assay system utilizes mouse bone marrow derived from animals 2 days after 5-fluorouracil (5-FU) treatment. […] The rat SCF is plated in the presence of CSF-1 or IL-6 in semi-solid agar cultures. The agar cultures contain McCoys complete medium (GIBCO), 20% fetal bovine serum, 0.3% agar, and 2×10^5 bone marrow cells/ml. The McCoys complete medium contains the following components: 1× McCoys medium supplemented with 0.1 mM pyruvate, 0.24× essential amino acids, 0.24× non-essential amino acids, 0.027% sodium bicarbonate, 0.24× vitamins, 0.72 mM glutamine, 25 μg/ml L-serine, and 12 μg/ml L-asparagine. The bone marrow cells are obtained from Balb/c mice injected i.v. with 150 mg/kg 5-FU. The femurs are harvested 2 days post 5-FU treatment of the mice and bone marrow is flushed out. The red blood cells are lysed with red blood cell lysing reagent (Becton Dickenson) prior to plating. Test substances are plated with the above mixture in 30 mm dishes. Fourteen days later the colonies (>1 mm in diameter) which contain thousands of cells are scored. This assay was used throughout the purification of natural mammalian cell-derived rat SCF.

[4] = tested on: murine mast cell line, MC/9; assay: MC/9 ^3H-thymidine uptake assay; type: cell-based; conditions: COS-1 supernatants, concentrations tested
Experimental: Another useful biological activity of both naturally-derived and recombinant rat SCF is the ability to cause the proliferation of the […] murine mast cell line, MC/9 (ATCC CRL 8306). MC/9 cells are cultured with a source of […] according to the ATCC CRL 8306 protocol. The medium used in the bioassay is RPMI 1640, 4% fetal bovine serum, 5×10^−5M 2-mercaptoethanol, and 1× glutamine-pen-strep. The MC/9 cells proliferate in response to SCF without the requirement for other growth factors. This proliferation is measured by first culturing the cells for 24 h without growth factors, plating 5000 cells in each well of 96 well plates with test sample for 48 h, pulsing for 4 h with 0.5 uCi ^3H-thymidine (specific activity 20 Ci/mmol), harvesting the solution onto glass fiber filters, and then measuring specifically-bound radioactivity. This assay was used in the purification of mammalian cell derived rat SCF after the ACA 54 gel filtration step, section C2 of this Example. Typically, SCF caused a 4–10 fold increase in CPM over background.

[5] = tested on: human bone marrow; assay: Human bone marrow colony assay; type: cell-based; conditions: for Colony #/100,000 cells ± SD: COS-1 CM, 20 U/ml EPO, 14 days, colonies ≥0.2 mm
Experimental: The cDNA of human SCF corresponding to amino acids 1–162 obtained by PCR reactions outlined in Example 3D, was expressed in COS-1 cells as described for the rat SCF in Example 4. COS-1 supernatants were assayed on human bone marrow as well as in the murine HPP-CFC and MC/9 assays. […] The culture conditions of the assay were as follows: human bone marrow from healthy volunteers was centrifuged over Ficoll-Hypaque gradients (Pharmacia) and cultured in 2.1% methyl cellulose, 30% fetal calf serum, 6×10^−5 M 2-mercaptoethanol, 2 mM glutamine, ISCOVE'S medium (GIBCO), 20 U/ml EPO, and 1×10^5 cells/ml for 14 days in a humidified atmosphere containing 7% O2, 10% CO2, and 83% N2. Only those colonies of 0.2 mm in size or larger are indicated.
Recombinant human SCF was tested in agar colony assays on human bone marrow in combination with other growth factors as described above.

[6] = tested on: KG-1; assay: KG-1 soft agar cloning assay; type: cell-based, human; conditions: COS-1 supernatant
Experimental: Another activity of recombinant human SCF is the ability to cause proliferation in soft agar of the human acute myelogenous leukemia (AML) cell line, KG-1 (ATCC CCL 246). COS-1 supernatants from transfected cells were tested in a KG-1 agar cloning assay [Koeffler et al., Science, 200, 1153–1154 (1978)] essentially as described except cells were plated at 3000/ml.

[7] = tested on: mouse bone marrow cells; assay: Pre-B cell colony formation in agar cultures; type: cell-based
From the text: The ability of recombinant rat SCF^1-164 (rrSCF^1-164), to act synergistically with IL-7 to enhance lymphoid cell proliferation was studied in agar cultures of mouse bone marrow. In this assay, the colonies formed with rrSCF^1-164 alone contained monocytes, neutrophils, and blast-cells, while the colonies stimulated by IL-7 alone or in combination with rrSCF^1-164 contained primarily pre-B cells. Pre-B cells, characterized as B220^+, sIg^−, cμ^+, were identified by FACS analysis of pooled cells using fluorescence-labeled antibodies to the B220 antigen [Coffman, Immunol. Rev., 69, 5 (1982)] and to surface Ig (FITC-goat anti-K, Southern Biotechnology Assoc., Birmingham, Ala.); and by analysis of cytospin slides for cytoplasmic μ expression using fluorescence-labeled antibodies (TRITC-goat anti-μ, Southern Biotechnology Assoc.,). Recombinant human IL-7 (rhIL-7) was obtained from Biosource International (Westlake Village, Calif.). When rrSCF^1-164 was added in combination with the pre-B cell growth factor IL-7, a synergistic increase in colony formation was observed (Table 16), indicating a stimulatory role of rrSCF^1-164 on early B cell progenitors.

[8] = tested on: normal human bone marrow; assay: Human CFU-GM assay; type: cell-based; conditions: average of triplicate cultures; SCF = COS-1 supernatant 4 days after transfection

**Q.** Which results are given for “SCF^1-137: E. coli human SCF analog, amino acids 1 to 137”?
**A.** specific activity in the UT-7 assay [1]: about 25 % of the value for SCF^1-164; specific activity in the radioreceptor assay [2]: full specific activity

**Q.** With “SCF^1-248: full length recombinant human stem cell factor formed in E. coli” as the molecule, how does the “activity in the UT-7 assay” value ([1]; final material after cation exchange chromatography) read?
**A.** Its value is “no activity”.

**Q.** And the “activity in the UT-7 assay” value ([1]; material following anion exchange chromatography)?
**A.** Its value is “active”.

**Q.** With “SCF^11-164: E. coli human SCF analog, amino acids 11 to 164” as the molecule, how does the “specific activity in the UT-7 assay” value [1] read?
**A.** The value was “negligible specific activity”.

**Q.** What about the “specific activity in the radioreceptor assay” value [2] of the same molecule?
**A.** Its value is “negligible specific activity”.

**Q.** Which results are given for “V19.8 human SCF^1-162: recombinant human SCF amino acids 1–162, COS-1 supernatant”?
**A.** activity in murine HPP-CFC assay [3]: not active; activity in murine MC/9 assay [4]: not active; Colony #/100,000 cells ± SD ([5]; 50 μl assayed): 22 ± 3; Colony #/100,000 cells ± SD ([5]; 100 μl assayed): 33 ± 7; activity on human bone marrow ([5]; COS-1 supernatants): active on human bone marrow; Colony #/3000 Cells ± SD ([6]; 1.5 μl assayed): 6 ± 6; Colony #/3000 Cells ± SD ([6]; 3 μl assayed): 6 ± 4; Colony #/3000 Cells ± SD ([6]; 6 μl assayed): 9 ± 5; Colony #/3000 Cells ± SD ([6]; 12 μl assayed): 8 ± 0; Colony #/3000 Cells ± SD ([6]; 25 μl assayed, triplicate): 14 ± 0

**Q.** “hSCF: Recombinant human SCF tested in agar colony assays; form not stated at Table 13” was tested. Which “Colony #/10^5 cells (14 Days)” value ([5]; agar colony assay, factors alone or combined) did it give?
**A.** Its value is 0.

**Q.** Which “Colony Number per 5 × 10^4 mouse bone marrow cells plated” value ([7]; 25 ng) does the source give for “rhIL-7: Recombinant human IL-7 from Biosource International” here?
**A.** Its value is 4 ± 2.

**Q.** What about the “Colony Number per 5 × 10^4 mouse bone marrow cells plated” value ([7]; 50 ng) of the same molecule?
**A.** Its value is 13 ± 6.

**Q.** And the “Colony Number per 5 × 10^4 mouse bone marrow cells plated” value ([7]; 100 ng)?
**A.** The value was 18 ± 6.

**Q.** And the “Colony Number per 5 × 10^4 mouse bone marrow cells plated” value ([7]; 200 ng, mean of triplicate dishes ± SD)?
**A.** Its value is 21 ± 6.

B1: CSF-1: human macrophage colony-stimulating factor (protein, UniProt P09603 33-554, looked up)
Macrophage colony-stimulating …: EEVSEYCSHMIGSGHLQSLQRLIDSQMETSCQITFEFVDQEQLKDPVCYLKKAFLLVQDIMEDTMRFRDNTPNAIAIVQLQELSLRLKSCFTKDYEEHDKACVRTFYETPLQLLEKVKNVFNETKNLLDKDWNIFSKNCNNSFAECSSQDVVTKPDCNCLYPKAIPSSDPASVSPHQPLAPSMAPVAGLTWEDSEGTEGSSLLPGEQPLHTVDPGSAKQRPPRSTCQSFEPPETPVVKDSTIGGSPQPRPSVGAFNPGMEDILDSAMGTNWVPEEASGEASEIPVPQGTELSPSRPGGGSMQTEPARPSNFLSASSPLPASAKGQQPADVTGTALPRVGPVRPTGQDWNHTPQKTDHPSALLRDPPEPGSPRISSLRPQGLSNPSTLSAQPQLSRSHSSGSVLPLGELEGRRSTRDRRSPAEPEGGPASEGAARPLPRFNSVPLTDTGHERQSEGSFSPQLQESVFHLLVPSVILVLLAVGGLLFYRWRRRSHQEPQRADSPLEQPEGSPLTQDDRQVELPV
**Q.** Which “Colony #/100,000 cells (±SEM)” value [8] does the source give for B1 here?
**A.** Its value is 0.
